Tests used:
[1] = target: adenosine A2B receptor (Homo sapiens (Human), UniProt P29275); assay: Adenosine receptor activity assay (Table 1), A2B activity; format: biochemical; settings: for Ratio: A2A activity to A2B activity (A2A/A2B); for IC50: read-out: Ave A2B cAMP IC50
[2] = target: adenosine A2A receptor (Homo sapiens (Human), UniProt P29274); assay: Adenosine receptor activity assay (Table 1), A2A activity; format: biochemical; settings: read-out: Ave A2A cAMP IC50
Chain of adenosine A2A receptor (P29274 whole entry): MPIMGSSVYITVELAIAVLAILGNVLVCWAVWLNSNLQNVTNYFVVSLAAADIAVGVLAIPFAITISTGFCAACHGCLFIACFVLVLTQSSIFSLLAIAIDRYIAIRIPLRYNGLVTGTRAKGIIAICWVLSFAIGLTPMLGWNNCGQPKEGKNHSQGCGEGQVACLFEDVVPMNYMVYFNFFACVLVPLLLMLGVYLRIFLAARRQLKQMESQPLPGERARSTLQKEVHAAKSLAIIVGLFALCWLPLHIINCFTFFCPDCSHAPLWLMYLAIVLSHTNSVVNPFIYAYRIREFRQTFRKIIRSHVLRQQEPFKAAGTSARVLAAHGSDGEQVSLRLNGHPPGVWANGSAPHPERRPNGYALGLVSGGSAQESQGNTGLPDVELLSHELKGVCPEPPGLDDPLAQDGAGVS

Chain of adenosine A2B receptor (P29275 whole entry): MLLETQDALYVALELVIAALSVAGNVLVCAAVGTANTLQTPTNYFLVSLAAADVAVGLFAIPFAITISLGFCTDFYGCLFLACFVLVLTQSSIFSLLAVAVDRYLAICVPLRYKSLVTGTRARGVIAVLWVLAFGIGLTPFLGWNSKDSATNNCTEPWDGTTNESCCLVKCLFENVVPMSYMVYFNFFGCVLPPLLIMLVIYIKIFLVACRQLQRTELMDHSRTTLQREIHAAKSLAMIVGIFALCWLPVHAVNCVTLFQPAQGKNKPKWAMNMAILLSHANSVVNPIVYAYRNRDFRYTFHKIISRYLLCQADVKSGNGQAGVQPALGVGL

| SMILES | Ratio [1] | IC50 [1] [µM] | IC50 [2] [µM] |
| --- | --- | --- | --- |
| O=C(c1nc(NCCn2ccnc2)nc2ccsc12)N1CCCC1 [Example Z273, (2-((2-(1H-Imidazol-1-yl)ethyl)amino)thieno[3,2-d]pyrimidin-4-yl)(pyrrolidin-1-yl)methanone] | 2.15 | > 0.5 | > 0.5 |
| C[C@H](Nc1nc(C(=O)NCc2nccn2C)c2sccc2n1)c1ccccn1 [Example Z290, (S)—N-((1-Methyl-1H-imidazol-2-yl)methyl)-2-((1-(pyridin-2-yl)ethyl)amino)thieno[3,2-d]pyrimidine-4-carboxamide] | 1.63 | > 0.5 | > 0.5 |
| CO[C@H]1C[C@@H](NC(=O)c2nc(N[C@@H](C)c3cccnc3)nc3ccsc23)C1 [Example Z296, N-((1s,3R)-3-Methoxycyclobutyl)-2-(((S)-1-(pyridin-3-yl)ethyl)amino)thieno[3,2-d]pyrimidine-4-carboxamide] | 1.07 | 0.1 to 0.5 | 0.1 to 0.5 |
| C[C@H](Nc1nc(C(=O)NCc2ncc[nH]2)c2sccc2n1)c1ccccn1 [Example Z304, (S)—N-((1H-Imidazol-2-yl)methyl)-2-((1-(pyridin-2-yl)ethyl)amino)thieno[3,2-d]pyrimidine-4-carboxamide] | 2.03 | 0.1 to 0.5 | 0.1 to 0.5 |
| C[C@H](Nc1nc(C(=O)N2CC[C@@H](NC(=O)OC(C)(C)C)C2)c2sccc2n1)c1cccnc1 [Example Z313, tert-Butyl ((R)-1-(2-(((S)-1-(pyridin-3-yl)ethyl)amino)thieno[3,2-d]pyrimidine-4-carbonyl)pyrrolidin-3-yl)carbamate] | 0.29 | > 0.5 | 0.1 to 0.5 |
| C[C@H](Nc1nc(C(=O)N2CC[C@H](NC(=O)OC(C)(C)C)C2)c2sccc2n1)c1cccnc1 [Example Z314, tert-Butyl ((S)-1-(2-(((S)-1-(pyridin-3-yl)ethyl)amino)thieno[3,2-d]pyrimidine-4-carbonyl)pyrrolidin-3-yl)carbamate] | 0.46 | 0.1 to 0.5 | 0.05 to 0.1 |
| CC(=O)N[C@@H]1CCN(C(=O)c2nc(N[C@@H](C)c3cccnc3)nc3ccsc23)C1 [Example Z316, N—((R)-1-(2-(((S)-1-(Pyridin-3-yl)ethyl)amino)thieno[3,2-d]pyrimidine-4-carbonyl)pyrrolidin-3-yl)acetamide] | 2.06 | > 0.5 | > 0.5 |
| CC(=O)N[C@@H]1CCN(C(=O)c2nc(N[C@@H](C)c3ccccn3)nc3ccsc23)C1 [Example Z317, N—((R)-1-(2-(((S)-1-(Pyridin-2-yl)ethyl)amino)thieno[3,2-d]pyrimidine-4-carbonyl)pyrrolidin-3-yl)acetamide] | 6.69 | > 0.5 | > 0.5 |
| CC(=O)N[C@@H]1CCN(C(=O)c2nc(NCc3cncc(F)c3)nc3ccsc23)C1 [Example Z318, (R)—N-(1-(2-(((5-Fluoropyridin-3-yl)methyl)amino)thieno[3,2-d]pyrimidine-4-carbonyl)pyrrolidin-3-yl)acetamide] | 17.41 | > 0.5 | > 0.5 |
| CC(=O)N[C@H]1CCN(C(=O)c2nc(N[C@@H](C)c3cccnc3)nc3ccsc23)C1 [Example Z322, N—((S)-1-(2-(((S)-1-(Pyridin-3-yl)ethyl)amino)thieno[3,2-d]pyrimidine-4-carbonyl)pyrrolidin-3-yl)acetamide] | 6.33 | 0.1 to 0.5 | > 0.5 |
| COC[C@H](Nc1nc(C(=O)NC[C@H](C)O)c2sccc2n1)c1cccnc1 [Example Z323, N—((S)-2-Hydroxypropyl)-2-(((R)-2-methoxy-1-(pyridin-3-yl)ethyl)amino)thieno[3,2-d]pyrimidine-4-carboxamide] | 3.30 | > 0.5 | > 0.5 |
| COC[C@H](Nc1nc(C(=O)NC[C@@H](C)O)c2sccc2n1)c1cccnc1 [Example Z325, N—((R)-2-Hydroxypropyl)-2-(((R)-2-methoxy-1-(pyridin-3-yl)ethyl)amino)thieno[3,2-d]pyrimidine-4-carboxamide] | 1.87 | > 0.5 | > 0.5 |
| C[C@H](NC(=O)c1nc(N[C@@H](C)c2ccncc2)nc2ccsc12)c1ccncc1 [Example Z338, N—((S)-1-(Pyridin-4-yl)ethyl)-2-(((S)-1-(pyridin-4-yl)ethyl)amino)thieno[3,2-d]pyrimidine-4-carboxamide] | 1.50 | 0.1 to 0.5 | > 0.5 |
| C[C@H](Nc1nc(C(=O)NCCC2CCN(C(=O)OC(C)(C)C)CC2)c2sccc2n1)c1ccccn1 [Example Z342, tert-Butyl (S)-4-(2-(2-((1-(Pyridin-2-yl)ethyl)amino)thieno[3,2-d]pyrimidine-4-carboxamido)ethyl)piperidine-1-carboxylate] | 2.11 | 0.1 to 0.5 | 0.1 to 0.5 |

Results, then the molecule that gave them:

| Ratio [1] | IC50 [1] [µM] | IC50 [2] [µM] | SMILES |
| --- | --- | --- | --- |
| 1.11 | 0.1 to 0.5 | 0.1 to 0.5 | C[C@H](Nc1nc(C(=O)N2CC[C@H](S(C)(=O)=O)C2)c2sccc2n1)c1ccccn1 [Example Z274] |
| 14.69 | 0.1 to 0.5 | > 0.5 | C[C@H](Nc1nc(C(=O)N2CCCOC2)c2sccc2n1)c1ccccn1 [Example Z289, (S)-(1,3-Oxazinan-3-yl)(2-((1-(pyridin-2-yl)ethyl)amino)thieno[3,2-d]pyrimidin-4-yl)methanone] |
| 3.08 | 0.05 to 0.1 | 0.1 to 0.5 | C[C@H](Nc1nc(C(=O)Nc2ccccc2)c2sccc2n1)c1ccccn1 [Example Z303, (S)—N-Phenyl-2-((1-(pyridin-2-yl)ethyl)amino)thieno[3,2-d]pyrimidine-4-carboxamide] |
| 40.62 | 0.01 to 0.05 | > 0.5 | C[C@H](Nc1nc(C(=O)N[C@H]2C[C@H](O)C2)c2sccc2n1)c1cncc(Cl)c1 [Example Z306, 2-(((S)-1-(5-Chloropyridin-3-yl)ethyl)amino)-N-((1r,3S)-3-hydroxycyclobutyl)thieno[3,2-d]pyrimidine-4-carboxamide] |
| 5.89 | 0.01 to 0.05 | 0.1 to 0.5 | COc1cncc(NC(=O)c2nc(N[C@@H](C)c3ccccn3)nc3ccsc23)c1 [Example Z307, (S)—N-(5-Methoxypyridin-3-yl)-2-((1-(pyridin-2-yl)ethyl)amino)thieno[3,2-d]pyrimidine-4-carboxamide] |
| 0.67 | 0.05 to 0.1 | 0.05 to 0.1 | C[C@H](Nc1nc(C(=O)N2CC[C@H](NC(=O)OC(C)(C)C)C2)c2sccc2n1)c1ccccn1 [Example Z315, tert-Butyl ((S)-1-(2-(((S)-1-(pyridin-2-yl)ethyl)amino)thieno[3,2-d]pyrimidine-4-carbonyl)pyrrolidin-3-yl)carbamate] |
| 22.72 | 0.05 to 0.1 | > 0.5 | CC(=O)N[C@@H]1CCN(C(=O)c2nc(N[C@@H](C)c3cncc(F)c3)nc3ccsc23)C1 [Example Z319, N—((R)-1-(2-(((S)-1-(5-Fluoropyridin-3-yl)ethyl)amino)thieno[3,2-d]pyrimidine-4-carbonyl)pyrrolidin-3-yl)acetamide] |
| 3.92 | 0.05 to 0.1 | 0.1 to 0.5 | COC[C@@H](Nc1nc(C(=O)NC[C@H](C)O)c2sccc2n1)c1cccnc1 [Example Z320, N—((S)-2-Hydroxypropyl)-2-(((S)-2-methoxy-1-(pyridin-3-yl)ethyl)amino)thieno[3,2-d]pyrimidine-4-carboxamide] |
| 3.66 | 0.05 to 0.1 | 0.1 to 0.5 | COC[C@@H](Nc1nc(C(=O)NC[C@@H](C)O)c2sccc2n1)c1cccnc1 [Example Z321, N—((R)-2-Hydroxypropyl)-2-(((S)-2-methoxy-1-(pyridin-3-yl)ethyl)amino)thieno[3,2-d]pyrimidine-4-carboxamide] |
| 28.39 | 0.01 to 0.05 | > 0.5 | CC(=O)N[C@H]1CCN(C(=O)c2nc(N[C@@H](C)c3ccccn3)nc3ccsc23)C1 [Example Z324, N—((S)-1-(2-(((S)-1-(Pyridin-2-yl)ethyl)amino)thieno[3,2-d]pyrimidine-4-carbonyl)pyrrolidin-3-yl)acetamide] |
| 196.86 | < 0.01 | > 0.5 | CC(=O)N[C@H]1CCN(C(=O)c2nc(NCc3cncc(F)c3)nc3ccsc23)C1 [Example Z330, (S)—N-(1-(2-(((5-Fluoropyridin-3-yl)methyl)amino)thieno[3,2-d]pyrimidine-4-carbonyl)pyrrolidin-3-yl)acetamide] |
|  | 0.05 to 0.1 | 0.1 to 0.5 | C[C@H](Nc1nc(C(=O)NCCC2CCN(C(=O)OC(C)(C)C)CC2)c2sccc2n1)c1cncc(F)c1 [Example Z343, tert-Butyl (S)-4-(2-(2-((1-(5-Fluoropyridin-3-yl)ethyl)amino)thieno[3,2-d]pyrimidine-4-carboxamido)ethyl)piperidine-1-carboxylate] |
| 8.03 | 0.01 to 0.05 | 0.1 to 0.5 | C[C@H](Nc1nc(C(=O)N2CCCC2)c2sccc2n1)c1ccncc1 [Example Z344, (S)-(2-((1-(Pyridin-4-yl)ethyl)amino)thieno[3,2-d]pyrimidin-4-yl)(pyrrolidin-1-yl)methanone] |
| 1.41 | 0.05 to 0.1 | 0.1 to 0.5 | COc1ccc(CNC(=O)c2nc(N[C@@H](C)c3ccncc3)nc3ccsc23)cn1 [Example Z345, (S)—N-((6-Methoxypyridin-3-yl)methyl)-2-((1-(pyridin-4-yl)ethyl)amino)thieno[3,2-d]pyrimidine-4-carboxamide] |
| 46.63 | 0.01 to 0.05 | > 0.5 | C[C@H](Nc1nc(C(=O)N2CC[C@@H](O)C2)c2sc(C(F)(F)F)cc2n1)c1ccccn1 [Example Z349, ((R)-3-Hydroxypyrrolidin-1-yl)(2-(((S)-1-(pyridin-2-yl)ethyl)amino)-6-(trifluoromethyl)thieno[3,2-d]pyrimidin-4-yl)methanone] |

Reference: US11254686B1 (Corvus Pharmaceuticals, Inc., priority 2017, dated 2022)
